We go through one molecule from PMC10202359, “Nicotinamide N-methyltransferase (NNMT) regulates the glucocorticoid signaling pathway during the early phase of adipogenesis” (Scientific Reports, 2023).

The term IC50 denotes the concentration needed to halve the response being measured.

Where two headings read alike, the source gives them in different places.

One experiment deals with T1, human NNMT (Homo sapiens, UniProt P40261).
T1 sequence (P40261 1-264): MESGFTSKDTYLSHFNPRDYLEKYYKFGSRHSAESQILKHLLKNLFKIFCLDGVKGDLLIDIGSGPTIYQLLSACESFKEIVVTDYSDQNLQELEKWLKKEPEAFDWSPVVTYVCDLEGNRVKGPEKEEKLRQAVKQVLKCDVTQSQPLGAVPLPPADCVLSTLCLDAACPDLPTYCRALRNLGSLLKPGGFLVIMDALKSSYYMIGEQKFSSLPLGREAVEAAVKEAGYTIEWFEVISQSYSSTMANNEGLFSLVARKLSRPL
As to the kind of experiment: hNNMT enzymatic modulation, RapidFire SPE LC/MS assay (Lilly). In kind it is biochemical.

In a further experiment the target is T2, DNMT3a (Homo sapiens, UniProt Q9Y6K1).
T2 construct: purchased Reaction Biology Corporation
T2 sequence (Q9Y6K1 whole entry, looked up, species assumed): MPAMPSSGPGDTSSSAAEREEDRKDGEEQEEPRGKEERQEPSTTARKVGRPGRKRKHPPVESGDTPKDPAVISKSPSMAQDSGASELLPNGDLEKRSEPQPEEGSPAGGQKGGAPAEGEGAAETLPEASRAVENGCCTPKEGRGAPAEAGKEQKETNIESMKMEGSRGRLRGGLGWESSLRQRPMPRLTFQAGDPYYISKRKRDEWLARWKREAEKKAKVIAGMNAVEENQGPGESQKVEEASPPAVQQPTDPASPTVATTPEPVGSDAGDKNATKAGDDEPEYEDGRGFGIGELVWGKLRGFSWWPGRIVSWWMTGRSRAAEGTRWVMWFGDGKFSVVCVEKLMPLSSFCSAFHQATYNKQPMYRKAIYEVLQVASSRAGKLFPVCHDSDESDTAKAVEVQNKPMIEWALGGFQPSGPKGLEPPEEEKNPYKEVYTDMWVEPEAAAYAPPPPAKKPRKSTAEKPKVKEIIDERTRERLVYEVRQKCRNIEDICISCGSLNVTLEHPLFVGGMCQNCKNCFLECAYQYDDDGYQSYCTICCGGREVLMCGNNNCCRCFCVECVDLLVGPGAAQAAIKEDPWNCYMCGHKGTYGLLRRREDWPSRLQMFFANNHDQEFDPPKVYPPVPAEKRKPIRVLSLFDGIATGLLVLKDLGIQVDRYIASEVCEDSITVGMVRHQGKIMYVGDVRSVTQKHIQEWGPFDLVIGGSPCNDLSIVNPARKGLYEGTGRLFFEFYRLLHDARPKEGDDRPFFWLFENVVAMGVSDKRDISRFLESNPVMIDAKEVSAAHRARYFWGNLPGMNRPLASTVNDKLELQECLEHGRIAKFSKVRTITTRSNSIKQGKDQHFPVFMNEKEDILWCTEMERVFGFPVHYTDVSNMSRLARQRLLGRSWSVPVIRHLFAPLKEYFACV
In words: Methyltransferase Hot Spot radioisotope assay, DNMT3a. In kind it is biochemical. The following applies: 10-dose, threefold dilution; CC-410 from 300 μM, control from 100 μM; substrate Lambda DNA. As to the method: (§1) CC-410 was screened in biochemical assays for activity against a panel of 11 methyltransferases (MT) by using the radioisotope (3H-AdoMet) based MT Hot Spot Assay. All the assays were performed by Reaction Biology Corporation (RBC, Malven, PA, USA). Briefly CC-410 was incubated with the selected MTs, corresponding substrates, and radiolabeled SAM (S-Adenosyl-L-[methyl-3 H]methionine). The specific MTs assessed, and the corresponding substrates are as follows: DNMT1- Poly dl-dC, DNMT3a- Lambda DNA, DNMT3b- Lambda DNA, DOT1L- Nucleosomes, EZH2 Complex- Core Histone, METTL21A- HSPA8-[CTD], NRMT1- RCC1, PRMT3- Histone H4, PRMT5/MEP50- Histone H2A, SET1b -Core Histone Complex and SMYD2- Nucleosomes. Reaction mixtures were incubated and spotted onto filter papers, which were then washed to remove unreacted SAM, leaving the bound radiolabeled product. Detection of the radiolabeled, methylated product was performed via a nanoliter-scale radioisotope filter binding platform. […] For each assay, control compounds were included as positive controls for enzyme function and assay reproducibility. […] IC50 was calculated by non-linear least square fitting dose–response curve.

A further experiment deals with T3, DNMT3b (Homo sapiens, UniProt Q9UBC3).
T3 construct: purchased Reaction Biology Corporation
As to the kind of experiment: Methyltransferase Hot Spot radioisotope assay, DNMT3b. In kind it is biochemical. The following applies: 10-dose, threefold dilution; CC-410 from 300 μM, control from 100 μM; substrate Lambda DNA. As to the method:
as §1

The next experiment has as its target METTL21A (Homo sapiens, UniProt Q8WXB1). In words: Methyltransferase Hot Spot radioisotope assay, METTL21A. Format: biochemical. Conditions: 10-dose, threefold dilution; CC-410 from 300 μM, control from 100 μM; substrate HSPA8-[CTD]. As for the experimental part:
as §1, with “The specific MTs assessed, and the corresponding substrates are as follows: DNMT1- Poly dl-dC, DNMT3a- Lambda DNA, DNMT3b- Lambda DNA, DOT1L- Nucleosomes, EZH2 Complex- Core Histone, METTL21A- HSPA8-[CTD], NRMT1- RCC1, PRMT3- Histone H4, PRMT5/MEP50- Histone H2A, SET1b -Core Histone Complex and SMYD2- Nucleosomes.” left out

In a further experiment the target is PRMT3 (Homo sapiens, UniProt O60678). In words: Methyltransferase Hot Spot radioisotope assay, PRMT3. In kind it is biochemical. The following applies: text and Fig. 4D curve fit; read-out: IC50 for PRMT3. As for the experimental part: as §1, with “The specific MTs assessed, and the corresponding substrates are as follows: DNMT1- Poly dl-dC, DNMT3a- Lambda DNA, DNMT3b- Lambda DNA, DOT1L- Nucleosomes, EZH2 Complex- Core Histone, METTL21A- HSPA8-[CTD], NRMT1- RCC1, PRMT3- Histone H4, PRMT5/MEP50- Histone H2A, SET1b -Core Histone Complex and SMYD2- Nucleosomes.” left out
PRMT3, sequence (O60678 whole entry, species assumed): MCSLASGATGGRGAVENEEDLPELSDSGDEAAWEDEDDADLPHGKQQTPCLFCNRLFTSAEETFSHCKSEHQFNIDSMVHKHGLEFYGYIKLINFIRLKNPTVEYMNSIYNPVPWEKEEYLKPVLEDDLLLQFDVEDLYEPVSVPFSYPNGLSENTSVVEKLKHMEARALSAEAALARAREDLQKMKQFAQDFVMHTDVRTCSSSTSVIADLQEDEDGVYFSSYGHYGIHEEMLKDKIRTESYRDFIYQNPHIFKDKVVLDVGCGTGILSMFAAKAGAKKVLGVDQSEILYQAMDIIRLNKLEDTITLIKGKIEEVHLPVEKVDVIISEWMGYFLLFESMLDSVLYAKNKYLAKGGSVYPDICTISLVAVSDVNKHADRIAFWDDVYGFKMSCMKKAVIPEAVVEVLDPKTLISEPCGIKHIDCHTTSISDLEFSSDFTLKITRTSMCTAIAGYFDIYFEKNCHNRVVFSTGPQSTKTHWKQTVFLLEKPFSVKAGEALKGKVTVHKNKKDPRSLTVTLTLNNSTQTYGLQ

The next experiment has as its target T4, PRMT5/MEP50 (Homo sapiens, UniProt O14744).
T4 construct: purchased Reaction Biology Corporation
As to the kind of experiment: Methyltransferase Hot Spot radioisotope assay, PRMT5/MEP50. Format: biochemical. The following applies: 10-dose, threefold dilution; CC-410 from 300 μM, control from 100 μM; substrate Histone H2A. As for the experimental part: as §1

The target in the next experiment is T5, SET1b Complex (Homo sapiens, UniProt Q9UPS6).
T5 construct: purchased Reaction Biology Corporation
As to the kind of experiment: Methyltransferase Hot Spot radioisotope assay, SET1b Complex. In kind it is biochemical. As to the method: as §1

A further experiment addresses T6, SMYD2 (Homo sapiens, UniProt Q9NRG4).
T6 construct: purchased Reaction Biology Corporation
As to the kind of experiment: Methyltransferase Hot Spot radioisotope assay, SMYD2. In kind it is biochemical. As for the experimental part:
as §1

For another experiment, the system named is 3T3-L1 cells. As to the kind of experiment: Oil Red-O staining of adipocyte differentiation, 3T3-L1. Conditions: for reduction of adipogenesis (Oil Red-O quantification) compared to untreated control: treatment throughout the differentiation process (during adipogenesis). In kind it is cell-based, mouse. As to the method: 3T3-L1 Mouse Embryonic Fibroblasts were purchased from American Type Culture Collection (ATCC CL-173). The cells were propagated and maintained in Dulbecco’s modified Eagle’s medium (DMEM, Gibco) supplemented with 10% calf serum (FCS) at 37 °C in 5% CO2 atmosphere. Subconfluents cells were expanded and utilized for the subsequent experiments at the passages 3–6. To induce differentiation, 2-day post-confluent 3T3-L1 pre-adipocytes were cultured for 48 h with DIM (DMEM supplemented with 10% fetal bovine serum (FBS), 1.0 µM Dexamethasone (G. Biosciences), […] Insulin (Sigma) and 0.5 mM IBMX (Sigma). Two days after induction the DIM medium was removed and the cells were maintained in DMED supplemented with 10% FBS and […] Insulin, which was replaced every 48 h, until the cells became fully differentiated (8–10 days after induction). C3H10T1/2 cells were purchased from American Type Culture Collection (ATCC, clone 8, CCL-226, were grown and induced to differentiate following the same protocol, with cell cultures < 3 passages. Oil Red-O staining was used as previously described. Briefly, cells were fixed for 30 min with 4% formaldehyde, stained with filtered Oil Red solution (0.2% oil red in 40% 2-propanol) and washed 5 times with distilled water. The accumulation of fat droplets in the cells was visualized and photographed under an inverted microscope (DMi1, Leica). The dye was eluted with 100% 2-propanol and quantified spectroscopically at 510 nm (Synergy HT, Bio-Tek).

T4 sequence (O14744 whole entry, species assumed): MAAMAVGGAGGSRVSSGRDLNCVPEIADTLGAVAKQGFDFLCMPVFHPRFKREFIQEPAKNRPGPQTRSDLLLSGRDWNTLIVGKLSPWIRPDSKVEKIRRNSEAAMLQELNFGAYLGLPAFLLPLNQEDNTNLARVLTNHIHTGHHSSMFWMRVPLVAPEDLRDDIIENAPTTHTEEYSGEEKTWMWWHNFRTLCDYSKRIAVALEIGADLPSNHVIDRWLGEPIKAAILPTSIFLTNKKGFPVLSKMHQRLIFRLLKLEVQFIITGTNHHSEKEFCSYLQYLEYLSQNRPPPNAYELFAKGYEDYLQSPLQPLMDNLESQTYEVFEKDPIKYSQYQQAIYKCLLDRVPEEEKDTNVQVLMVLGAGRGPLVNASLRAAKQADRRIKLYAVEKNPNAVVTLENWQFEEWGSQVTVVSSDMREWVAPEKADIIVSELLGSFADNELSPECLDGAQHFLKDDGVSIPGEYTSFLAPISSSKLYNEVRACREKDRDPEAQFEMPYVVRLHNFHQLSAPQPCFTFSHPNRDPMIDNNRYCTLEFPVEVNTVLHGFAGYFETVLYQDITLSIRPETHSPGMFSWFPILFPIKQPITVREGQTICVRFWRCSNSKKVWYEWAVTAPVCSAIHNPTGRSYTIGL
T4 sequence (Q9BQA1 whole entry partner, species assumed): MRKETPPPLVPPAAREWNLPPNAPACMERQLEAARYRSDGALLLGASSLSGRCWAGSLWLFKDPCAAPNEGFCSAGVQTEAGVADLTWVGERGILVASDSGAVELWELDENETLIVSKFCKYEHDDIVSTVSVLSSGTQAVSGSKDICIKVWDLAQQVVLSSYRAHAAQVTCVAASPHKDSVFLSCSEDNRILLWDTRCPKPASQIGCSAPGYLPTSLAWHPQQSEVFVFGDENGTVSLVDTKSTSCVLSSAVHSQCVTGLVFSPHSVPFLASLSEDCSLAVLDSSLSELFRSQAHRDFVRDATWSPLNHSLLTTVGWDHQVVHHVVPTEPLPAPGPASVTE
METTL21A, sequence (Q8WXB1 whole entry, species assumed): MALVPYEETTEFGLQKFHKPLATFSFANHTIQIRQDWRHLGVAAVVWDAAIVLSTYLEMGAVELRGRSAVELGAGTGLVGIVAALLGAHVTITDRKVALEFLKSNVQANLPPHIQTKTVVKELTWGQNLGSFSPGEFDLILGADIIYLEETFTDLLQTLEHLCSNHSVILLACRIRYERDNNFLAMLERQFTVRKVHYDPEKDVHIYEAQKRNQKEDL
T6 sequence (Q9NRG4 whole entry, species assumed): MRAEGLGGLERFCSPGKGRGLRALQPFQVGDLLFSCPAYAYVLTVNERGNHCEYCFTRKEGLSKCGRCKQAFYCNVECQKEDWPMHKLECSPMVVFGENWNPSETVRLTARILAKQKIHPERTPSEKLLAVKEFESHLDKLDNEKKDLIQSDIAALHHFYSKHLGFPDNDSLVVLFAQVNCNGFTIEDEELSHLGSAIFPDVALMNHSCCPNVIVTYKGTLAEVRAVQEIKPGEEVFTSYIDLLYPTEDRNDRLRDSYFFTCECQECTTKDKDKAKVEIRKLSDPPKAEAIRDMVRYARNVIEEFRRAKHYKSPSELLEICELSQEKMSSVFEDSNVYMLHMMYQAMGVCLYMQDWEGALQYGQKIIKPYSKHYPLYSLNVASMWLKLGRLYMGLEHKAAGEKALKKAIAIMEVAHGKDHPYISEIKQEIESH

Take `COC(=O)CCC(C)C1CCC2C3C(N)CC4CC(OC(C)=O)CCC4(C)[C@H]3CC(N)C12C` (stereo in doubt) [CC-410, Methyl-(4S)-4-((3S,5S,7S,8S,10R,12R,13S,14R,17S)-3-acetoxy-7,12-diamino-10,13-dimethylhexadecahydro-1H-cyclopenta[a]phenanthren-17-yl) pentanoate]: the concentration for half-maximal inhibition (IC50) on human NNMT (MNAM product readout, LC/MS, Fig. 4B, read-out: hNNMT MNAN Rel IC50) stood at 1.64 µM; at human NNMT (automated solid-phase extraction and LC-MS, read-out: IC50 against human NNMT) it was 1.6 µM; against human NNMT (hNNMT SAH Rel IC50, SAH product readout, LC/MS, Fig. 4B), 1.7 µM; at PRMT3 it was 104 µM; on SET1b Complex (10-dose, threefold dilution, CC-410 from 300 μM, control from 100 μM, substrate Core Histone, read-out: IC50* (M) SET1b Complex), 0.000121 M; on SET1b Complex (text and Fig. 4D curve fit, read-out: IC50 for SET1b Complex), 0.00012 M. Further, inhibition on SMYD2 was half-maximal at 34.3 µM (IC50). In addition, the “IC50* (M) DNMT3a” value against DNMT3a is given as “no inhibition or compound activity that could not be fitted to an IC50 curve”. Further, the “IC50* (M) DNMT3b” value against DNMT3b is listed as “no inhibition or compound activity that could not be fitted to an IC50 curve”. The “IC50* (M) METTL21A” value at METTL21A is “no inhibition or compound activity that could not be fitted to an IC50 curve”. Besides, the “IC50* (M) PRMT5/MEP50” value against PRMT5/MEP50 is “no inhibition or compound activity that could not be fitted to an IC50 curve”. The “reduction of adipogenesis (Oil Red-O quantification) compared to untreated control” value was found to be 60% in the experiment with 3T3-L1 cells (15 µM) and 80% in the experiment with 3T3-L1 cells (25 µM). The inhibition of adipogenesis in the experiment with 3T3-L1 cells (administered in the first 20 h after hormonal induction, highest concentration tested) is 50%. The effect on adipogenesis result is “no anti-adipogenic effect was evident” with 3T3-L1 cells (continuously dispensed after the early phase of adipogenesis); “strongly impaired adipogenesis” in the experiment with 3T3-L1 cells (treatment during the 48 h of DEX stimulation, followed by IBMX 48 h); “markedly reduced adipogenesis, with levels analogous to continuous treatment” in the experiment with 3T3-L1 cells (treatment during the early phase (from T0 to 48 h)).
